# Results taken from patent US9738604B2, “Ethynylbenzene derivatives” (Duke University, priority 2010, dated 2017).
# Where two headings read alike, the source gives them in different places.
# Key:
# Format in all cases: cell-based
# [1] = system: E. coli W3110; assay: microbe, parasite or virus in culture; conditions: for MIC: Escherichia coli, W3110, 22 h, read-out: MIC E. coli W3110
# [2] = system: E. coli W3110RL; assay: microbe, parasite or virus in culture; conditions: for MIC E. coli W3110RL: E. coli with lpxC of R. leguminosarum, 22 hours at 37° C., MTT; for MIC: Escherichia coli, W3110RL, 22 h, read-out: MIC E. coli W3110RL
# [3] = system: P. aeruginosa (PAO1); assay: MIC, P. aeruginosa; conditions: for MIC: Pseudomonas aeruginosa, read-out: MIC P. aeruginosa (PAO1)
# [4] = system: E. coli W3110PA; assay: microbe, parasite or virus in culture; conditions: for MIC E. coli W3110PA: E. coli with lpxC of P. aeruginosa, 22 hours at 37° C., MTT; for MIC: Escherichia coli, W3110PA, 22 h, read-out: MIC E. coli W3110PA
# [5] = P. aeruginosa PAO1, 22 hours at 37° C., MTT
Structure (SMILES),MIC E. coli W3110 [1],MIC E. coli W3110RL [2],"MIC P. aeruginosa (PAO1) [3, 5]",MIC E. coli W3110PA [4],MIC [1] [µg/mL],MIC [2] [µg/mL],"MIC [3, 5] [µg/mL]",MIC [4] [µg/mL],"MIC ([3]; PAO1, 22 h) [µg/mL]","MIC E. coli W3110 ([1]; wild-type E. coli W3110, 22 hours at 37° C., MTT)"
"CC(C)[C@H](NC(=O)c1ccc(C#CC#Cc2ccc(N)cc2)cc1)C(=O)NO [CPD-022, (2S)-2-({4′-[4′-(4′-aminophenyl)buta-1′,3′-diyn-1′-yl]phenyl}formamido)-N-hydroxy-3-methylbutanamide]",A (key: A: <1 μg/mL; B: 1-10 μg/mL; C: 11-50 μg/mL; D: 51-100 μg/mL; E: >100 μg/mL),D (51-100 μg/mL),B (1-10 μg/mL),A (<1 μg/mL),,,,,,
O=C(NO)C(Cc1ccc2ccccc2c1)NS(=O)(=O)c1ccc2ccccc2c1 (stereo not drawn),,,,,1 to 10,> 100,> 100,> 100,,
"CSCC[C@H](NC(=O)c1ccc(C#CC#Cc2ccc(N)cc2)cc1)C(=O)NO [CPD-028, (2S)-2-({4′-(4′-(4′-aminophenyl)buta-1′,3′-diyn-1-yl]phenyl}formamido)-N-hydroxy-4-(methylsulfanyl)butanamide]",A (key: A: <1 μg/mL; B: 1-10 μg/mL; C: 11-50 μg/mL; D: 51-100 μg/mL; E: >100 μg/mL),E (>100 μg/mL),E (>100 μg/mL),E (>100 μg/mL),,,,,,
"C[C@@H](O)[C@H](NC(=O)c1ccc(C#CC#Cc2ccc(N)cc2)cn1)C(=O)NO [CPD-041, (2S,3R)-2-({5-[4-(4-aminophenyl)buta-1,3-diyn-1-yl]pyridin-2-yl}formamido)-N,3-dihydroxybutanamide]",,,,,< 1,11 to 50,,1 to 10,1 to 10,
C[C@@H](O)[C@H](NC(=O)c1ccc(C#Cc2ccc(CN3CCOCC3)cc2)cc1)C(=O)NO [drawing 320],,,,,< 1,> 100,< 1,< 1,,
"C[C@@](O)(c1ccc(O)cc1)C(NC(=O)c1ccc(C#CC#Cc2ccc(N)cc2)cc1)C(=O)NO (stereo partly drawn) [CPD-052, 4-((4-aminophenyl)buta-1,3-diynyl)-N-((3R)-3-hydroxy-1-(hydroxyamino)-3-(4-hydroxyphenyl)-1-oxobutan-2-yl)benzamide]",,,,,< 1,51 to 100,,1 to 10,1 to 10,
"Nc1ccc(C#CC#Cc2ccc(C(=O)N[C@H](C(=O)NO)[C@H](O)c3ccc(O)cc3)cc2)cc1 [CPD-049, 4-((4-aminophenyl)buta-1,3-diynyl)-N-((1R,2S)-1-hydroxy-3-(hydroxyamino)-1-(4-hydroxyphenyl)-3-oxopropan-2-yl)benzamide]",,,,,1 to 10,51 to 100,,51 to 100,11 to 50,
"C[C@@H](O)[C@H](NC(=O)c1ccc(C#CC#Cc2ccc(N)nc2)cc1)C(=O)NO [CPD-035, (2S,3R)-2-{4′-[[(2″-amino)pyridin-5″-yl]buta-1′,3′-diynyl]benzamido}-1,3-dihydroxybutanamide]",A (key: A: <1 μg/mL; B: 1-10 μg/mL; C: 11-50 μg/mL; D: 51-100 μg/mL; E: >100 μg/mL),C (11-50 μg/mL),A (<1 μg/mL),B (1-10 μg/mL),,,,,,
C[C@@H](O)[C@H](NC(=O)c1ccc(C#Cc2ccccc2)cc1)C(=O)NO,,,,,< 1,> 100,1 to 10,< 1,,
"Nc1ccc(C#CC#Cc2ccc(C(=O)NCC(=O)NO)cc2)cc1 [CPD-024, 2-({4′-[4′-(4′-aminophenyl)buta-1′,3′-diyn-1′-yl]phenyl}formamido)-N-hydroxyacetamide]",A (key: A: <1 μg/mL; B: 1-10 μg/mL; C: 11-50 μg/mL; D: 51-100 μg/mL; E: >100 μg/mL),E (>100 μg/mL),D (51-100 μg/mL),C (11-50 μg/mL),,,,,,
"C[C@H](O)[C@H](NC(=O)c1ccc(C#CC#Cc2ccc(N)cc2)cc1)C(=O)NO [CPD-053, (2S,3S)-2-{4′-[(4″-aminophenyl)buta-1′,3′-diynyl]benzamido}-1,3-dihydroxybutanamide]",,,,,< 1,51 to 100,,< 1,< 1,
"NC[C@H](NC(=O)c1ccc(C#CC#Cc2ccc(N)cc2)cc1)C(=O)NO [CPD-021, (2S)-3-amino-2-({4′-[4′-(4′-aminophenyl)buta-1′,3′-diyn-1-yl]phenyl}formamido)-N-hydroxypropanamide]",B (key: A: <1 μg/mL; B: 1-10 μg/mL; C: 11-50 μg/mL; D: 51-100 μg/mL; E: >100 μg/mL),E (>100 μg/mL),B (1-10 μg/mL),C (11-50 μg/mL),,,,,,
"C[C@@H](O)[C@@H](NC(=O)c1ccc(C#CC#Cc2ccc(N)cc2)cc1)C(=O)NO [CPD-054, (2R,3R)-2-{4′-[(4″-aminophenyl)buta-1′,3′-diynyl]benzamido}-1,3-dihydroxybutanamide]",,,,,1 to 10,51 to 100,,11 to 50,11 to 50,
"C[C@@H](O)[C@H](NC(=O)c1ccc(C#CC#Cc2cccnc2)cc1)C(=O)NO [CPD-038, (2S,3R)-2-{4′-[(pyridin-3″-yl]buta-1′,3′-diynyl]benzamido}-1,3-dihydroxybutanamide]",A (key: A: <1 μg/mL; B: 1-10 μg/mL; C: 11-50 μg/mL; D: 51-100 μg/mL; E: >100 μg/mL),D (51-100 μg/mL),A (<1 μg/mL),B (1-10 μg/mL),,,,,,
"Nc1ccc(C#CC#Cc2ccc(C(=O)N[C@@H](Cc3c[nH]cn3)C(=O)NO)cc2)cc1 [CPD-014, (2S)-2-({4′-[4′-(4′-aminophenyl)buta-1′,3′-diyn-1′-yl]phenyl}formamido)-N-hydroxy-3-(1′H-imidazol-4′-yl)propanamide]",A (key: A: <1 μg/mL; B: 1-10 μg/mL; C: 11-50 μg/mL; D: 51-100 μg/mL; E: >100 μg/mL),E (>100 μg/mL),B (1-10 μg/mL),B (1-10 μg/mL),,,,,,
"CC(C)[C@@]1(NC(=O)c2ccc(C#CC#Cc3ccc(N)cc3)cc2)CCN(O)C1=O [CPD-048, (S)-4-((4-aminophenyl)buta-1,3-diynyl)-N-(1-hydroxy-3-isopropyl-2-oxopyrrolidin-3-yl)benzamide]",,,,,1 to 10,51 to 100,,51 to 100,51 to 100,
"CC(C)(C)OC(=O)CC[C@H](NC(=O)c1ccc(C#CC#Cc2ccc(N)cc2)cc1)C(=O)NO [CPD-017, Tert-butyl (4S)-4-({4′-[4′-(4′-aminophenyl)buta-1′,3′-diyn-1′-yl]phenyl}formamido)-4-(hydroxycarbamoyl)butanoate]",C (key: A: <1 μg/mL; B: 1-10 μg/mL; C: 11-50 μg/mL; D: 51-100 μg/mL; E: >100 μg/mL),E (>100 μg/mL),E (>100 μg/mL),E (>100 μg/mL),,,,,,
"Nc1ccc(C#CC#Cc2ccc(C(=O)N3CCC[C@H]3C(=O)NO)cc2)cc1 [CPD-031, (2S)-1-({4′-[4′-(4′-aminophenyl)buta-1′,3′-diyn-1-yl]phenyl}carbonyl)-N-hydroxypyrrolidine-2-carboxamide]",C (key: A: <1 μg/mL; B: 1-10 μg/mL; C: 11-50 μg/mL; D: 51-100 μg/mL; E: >100 μg/mL),E (>100 μg/mL),E (>100 μg/mL),E (>100 μg/mL),,,,,,
"Nc1ccc(C#CC#Cc2ccc(C(=O)N[C@@H]3CCN(O)C3=O)cc2)cc1 [CPD-044, (R)-4-((4-aminophenyl)buta-1,3-diynyl)-N-(1-hydroxy-2-oxopyrrolidin-3-yl)benzamide]",,,,,< 1,51 to 100,,51 to 100,51 to 100,
"C[C@@H](O)[C@H](NC(=O)c1ccc(C#CC#Cc2cnc(N)nc2)cc1)C(=O)NO [CPD-036, (2S,3R)-2-{4′-[[(2″-amino)pyrimidin-5″-yl]buta-1′,3′-diynyl]benzamido}-1,3-dihydroxybutanamide]",B (key: A: <1 μg/mL; B: 1-10 μg/mL; C: 11-50 μg/mL; D: 51-100 μg/mL; E: >100 μg/mL),E (>100 μg/mL),A (<1 μg/mL),B (1-10 μg/mL),,,,,,
"Nc1ccc(OCC#Cc2ccc(C(=O)N[C@@H]3CCN(O)C3=O)cc2)cc1 [CPD-060, (R)-4-(3-(4-aminophenoxy)prop-1-ynyl)-N-(1-hydroxy-2-oxopyrrolidin-3-yl)benzamide]",,,,,1 to 10,51 to 100,,11 to 50,11 to 50,
"C[C@@H](O)[C@H](NC(=O)c1ccc(C#CC#Cc2ccc(N)cc2)cc1)C(=O)O [CPD-046, (2S,3R)-2-(4-((4-aminophenyl)buta-1,3-diynyl)benzamido)-3-hydroxybutanoic acid]",,,,,1 to 10,51 to 100,,51 to 100,51 to 100,
"Nc1ccc(C#CC#Cc2ccc(C(=O)N[C@@H](CCC(=O)O)C(=O)NO)cc2)cc1 [CPD-018, (4S)-4-({4′-[4′-(4′-aminophenyl)buta-1′,3′-diyn-1′-yl]phenyl}formamido)-4-(hydroxycarbamoyl)butanoic acid]",,E (>100 μg/mL),C (11-50 μg/mL),D (51-100 μg/mL),,,,,,B (1-10 μg/mL)
"CC(C)C[C@H](NC(=O)c1ccc(C#CC#Cc2ccc(N)cc2)cc1)C(=O)NO [CPD-026, (2S)-2-({4′-[4′-(4′-aminophenyl)buta-1′,3′-diyn-1-yl]phenyl}formamido)-N-hydroxy-4-methylpentanamide]",B (key: A: <1 μg/mL; B: 1-10 μg/mL; C: 11-50 μg/mL; D: 51-100 μg/mL; E: >100 μg/mL),E (>100 μg/mL),E (>100 μg/mL),E (>100 μg/mL),,,,,,
